These results are taken from patent US20240247266A1, “METHODS AND COMPOSITIONS FOR TREATING AN ANGIOTENSINOGEN- (AGT-) ASSOCIATED DISORDER” (Alnylam Pharmaceuticals, Inc., priority 2021, published 2024).

Holding throughout (format): in vivo, human
Series [1] concerns patients with hypertension. Put plainly: Example 5: blood pressure by 24 hour ABPM with irbesartan add-on. Particulars: daily add-on for 2 weeks to zilebesiran 800 mg, Day 43-57. How it is done: (§1) In a multicenter, randomized, double-blinded, placebo-controlled, single ascending fixed dose study to assess the safety and efficacy of AD-85481 (Zilebesiran) after a single fixed dose administration to subjects having hypertension (ClinicalTrials.gov Identifier: NCT03934307, Part A), a sub-study was performed to assess the safety and tolerability of AD-85481 (Zilebesiran) in hypertensive patients during irbesartan co-administration (NCT03934307, Part E). Briefly, all patients received an open-label single 800 mg fixed dose of AD-85481 by subcutaneous administration on Day 1. On Day 41, patients with a 24-hr mean systolic blood pressure (SBP)≥120 mmHg (N=10) proceeded to receive irbesartan (300 mg oral) once daily from Day 43 to Day 57 for 14 days (FIG. 10). The safety and tolerability, change from baseline in serum AGT, and plasma and urine pharmacokinetic parameters were evaluated. Change from baseline in blood pressure was also assessed by 24-hour ABPM. Assessments of AD-85481 also included change from baseline in SBP and DBP determined by 24 hour ambulatory blood pressure monitoring (ABPM).

The subject of series [2] is patients with hypertension. Put plainly: Example 5: safety and tolerability during irbesartan co-administration. As to conditions: add-on treatment with zilebesiran. How it is done:
as §1, with “10).” for “10). The safety and tolerability, change from baseline in serum AGT, and plasma and urine pharmacokinetic parameters were evaluated. Change from baseline in blood pressure was also assessed by 24-hour ABPM. Assessments of AD-85481 also included change from baseline in SBP and DBP determined by 24 hour ambulatory blood pressure monitoring (ABPM).”
(§2) The safety and tolerability, change from baseline in serum AGT, and plasma and urine pharmacokinetic parameters were evaluated. Change from baseline in blood pressure was also assessed by 24-hour ABPM.
Safety was reported from the start of the study to Day 85. […] There was one mild SAE of acute anemia in the irbesartan add-on group, but was considered not related to study drug, which was a complication of esophagogastroduodenoscopy with biopsy performed during screening prior to dose of zilebesiran.

Series [3] concerns serum AGT. Kind of series: Example 5 (Part E, irbesartan co-administration): serum AGT. As to conditions: add-on 300 mg orally daily after 800 mg AD-85481. How it is done:
as §1, with “10).” for “10). The safety and tolerability, change from baseline in serum AGT, and plasma and urine pharmacokinetic parameters were evaluated. Change from baseline in blood pressure was also assessed by 24-hour ABPM. Assessments of AD-85481 also included change from baseline in SBP and DBP determined by 24 hour ambulatory blood pressure monitoring (ABPM).”
as §2

Molecules are shown by their SMILES.

As to `CCCCC1=NC2(CCCC2)C(=O)N1Cc1ccc(-c2ccccc2-c2nnn[nH]2)cc1` [irbesartan], the “effect on systolic and diastolic BP (in words)” value in series [1] was “further reduced systolic and diastolic BP”. Also, in series [2], the “changes in creatinine or potassium” value was “without clinically significant changes in creatinine or potassium”. In series [3], the “effect on serum AGT levels” value is “no additional effect”.
